This experiment relates to human FXN. Briefly: EC50 assay: FXN mRNA expression by qRT-PCR in GM15850 cells after 48 hrs compound treatment. Type of experiment: cell-based. As to conditions: Homo sapiens, 48 hrs incubation, hFXN expression normalized to hGAPDH (qRT-PCR), read-out: EC50 WT (nM, 48 hr). As to the method: Cell culture: Cells were cultured in RPMI1640 medium+15% FBS. Cells were maintained at a density between 2e5/mL and 1e6/mL. Cells were centrifuged, resuspended in fresh medium, counted and plated at 150,000 cells per well in 100 uL in a non-coated, flat bottom tissue culture plate.
Compound treatment: 10 mM stock solution of FA GeneTAC was diluted 1:10 in DMSO followed by a 1:100 dilution in growth medium. Working solution was then further diluted to 10× desired final concentration of 150 nM. Compound was then diluted at a 1:3 ratio into growth medium containing 0.01% DMSO. 5-point, 3-fold dose response curve was generated. 11 μL of 1OX compound was added to wells containing 100 μL cell suspension of GM15850. 11 μL growth medium containing 0.01% DMSO was added to all wells not treated with FA GeneTAC. Cells were allowed to incubate for 48 hrs prior to cell lysis using guanidine isothiocyanate solution.
RNA isolation: Total RNA was isolated and purified in 384-well column filter plates using chaotropic salt.
qRT-PCR: qRT-PCR reactions were assembled using AgPath-ID reagents (Thermo Fisher) using 6 uL mastermix and 4 μL RNA. qRT-PCR TaqMan primer probe sets against human FXN (Assay ID Hs01075496_m1) and human GAPDH (Assay ID Hs00266705_g1) were used to measure the intended targets. qRT-PCR was run on the ThermoFisher QuantStudio 6 PRO instrument using the manufacturer's recommended cycling conditions.
Data analysis: qPCR data was analyzed using Thermo Fisher Design and Analysis software. Data was exported to Excel and hFXN expression was normalized to hGAPDH expression
A<100 nM; B is 100 nM to 500 nM; C>500 nM.

As to `Cc1sc2c(c1C)C(c1ccc(Cl)cc1)=N[C@@H](CC(=O)N1CCN(C3CN(CCOCCOCCOCCOCCOCCOCCNC(=O)CCNC(=O)c4nc(NC(=O)CCNC(=O)c5cc(NC(=O)c6nc(NC(=O)CCNC(=O)c7cc(NC(=O)c8nccn8C)cn7C)cn6C)cn5C)cn4C)C3)CC1)c1nnc(C)n1-2` [Compound 63], the EC50 (commonly the concentration needed to bring the measured effect to its halfway point) lay within 100 to 500 nM.

Turning to `Cc1sc2c(c1C)C(c1ccc(Cl)cc1)=N[C@@H](CC(=O)N1CCN(C3CCN(CCOCCOCCOCCOCCC(=O)NCCCN(CCCNC(=O)CCNC(=O)c4nc(NC(=O)CCNC(=O)c5cc(NC(=O)c6nc(NC(=O)CCNC(=O)c7cc(NC(=O)c8nccn8C)cn7C)cn6C)cn5C)cn4C)CC(F)(F)F)CC3)CC1)c1nnc(C)n1-2` [Compound 68], the EC50 was less than 100 nM. For `Cc1sc2c(c1C)C(c1ccc(Cl)cc1)=N[C@@H](CC(=O)N1CCC(N3CCN(CCOCCOCCOCCOCCC(=O)NCCCN(CCCNC(=O)CCNC(=O)c4nc(NC(=O)CCNC(=O)c5cc(NC(=O)c6nc(NC(=O)CCNC(=O)c7cc(NC(=O)c8nccn8C)cn7C)cn6C)cn5C)cn4C)CC(F)(F)F)CC3)CC1)c1nnc(C)n1-2` [Compound 69], the EC50 is less than 100 nM. `Cc1sc2c(c1C)C(c1ccc(Cl)cc1)=N[C@@H](CC(=O)NC1CCN(CCOCCOCCOCCOCCC(=O)NC3(C(=O)NCCOCCOCCOCCNC(=O)CCNC(=O)c4nc(NC(=O)CCNC(=O)c5cc(NC(=O)c6nc(NC(=O)CCNC(=O)c7cc(NC(=O)c8nccn8C)cn7C)cn6C)cn5C)cn4C)CCNCC3)CC1)c1nnc(C)n1-2` [Compound 70]: the EC50 lay in the range of 100 to 500 nM.

`Cc1sc2c(c1C)C(c1ccc(Cl)cc1)=N[C@@H](CC(=O)NC1CCN(CCOCCOCCOCCC(=O)NC3(C(=O)NCCOCCOCCOCCOCCNC(=O)CCNC(=O)c4nc(NC(=O)CCNC(=O)c5cc(NC(=O)c6nc(NC(=O)CCNC(=O)c7cc(NC(=O)c8nccn8C)cn7C)cn6C)cn5C)cn4C)CCNCC3)CC1)c1nnc(C)n1-2` [Compound 71]: the EC50 lay in the range of 100 to 500 nM. As for `Cc1sc2c(c1C)C(c1ccc(Cl)cc1)=N[C@@H](CC(=O)NC1CCN(CCOCCOCCOCCC(=O)NC3(C(=O)NCCOCCOCCOCCOCCNC(=O)CCNC(=O)c4nc(NC(=O)CCNC(=O)c5cc(NC(=O)c6nc(NC(=O)CCNC(=O)c7cc(NC(=O)c8nccn8C)cn7C)cn6C)cn5C)cn4C)CCN(CC(F)(F)F)CC3)CC1)c1nnc(C)n1-2` [Compound 73], the EC50 was in the range of 100 to 500 nM.

In the case of `COCCOCCOCCOCCOCCOCCOCCOCCOCCOCCOCCOCCOCCOCCOCCOCCC(=O)N1CCC(NC(=O)CCOCCOCCOCCN2CCC(NC(=O)C[C@@H]3N=C(c4ccc(Cl)cc4)c4c(sc(C)c4C)-n4c(C)nnc43)CC2)(C(=O)NCCOCCOCCOCCOCCNC(=O)CCNC(=O)c2nc(NC(=O)CCNC(=O)c3cc(NC(=O)c4nc(NC(=O)CCNC(=O)c5cc(NC(=O)c6nccn6C)cn5C)cn4C)cn3C)cn2C)CC1` [Compound 74], the EC50 was greater than 500 nM. On to `COCCOCCOCCOCCOCCOCCOCCOCCOCCOCCOCCC(=O)N1CCC(NC(=O)CCOCCOCCOCCN2CCC(NC(=O)C[C@@H]3N=C(c4ccc(Cl)cc4)c4c(sc(C)c4C)-n4c(C)nnc43)CC2)(C(=O)NCCOCCOCCOCCOCCNC(=O)CCNC(=O)c2nc(NC(=O)CCNC(=O)c3cc(NC(=O)c4nc(NC(=O)CCNC(=O)c5cc(NC(=O)c6nccn6C)cn5C)cn4C)cn3C)cn2C)CC1` [Compound 76], for which the EC50 was in the range of 100 to 500 nM.

Consider `Cc1sc2c(c1C)C(c1ccc(Cl)cc1)=N[C@@H](CC(=O)N1CCC(C#CC#CCNCCOCCOCCOCCOCCOCCOCCNC(=O)CCNC(=O)c3nc(NC(=O)CCNC(=O)c4cc(NC(=O)c5nc(NC(=O)CCNC(=O)c6cc(NC(=O)c7nccn7C)cn6C)cn5C)cn4C)cn3C)CC1)c1nnc(C)n1-2` [Compound 78], for which the EC50 was less than 100 nM. Turning to `Cc1sc2c(c1C)C(c1ccc(Cl)cc1)=N[C@@H](CC(=O)N1CCC(C#CC#CCNCCOCCOCCOCCOCCNC(=O)CCNC(=O)c3nc(NC(=O)CCNC(=O)c4cc(NC(=O)c5nc(NC(=O)CCNC(=O)c6cc(NC(=O)c7nccn7C)cn6C)cn5C)cn4C)cn3C)CC1)c1nnc(C)n1-2` [Compound 79], the EC50 was less than 100 nM. The figure for `Cc1noc2c1-c1ccccc1C(c1ccc(Cl)cc1)=N[C@H]2CC(=O)Nc1ccc(C#CC#CCNC(=O)COCCOCCOCCOCCOCCNC(=O)CCNC(=O)c2nc(NC(=O)CCNC(=O)c3cc(NC(=O)c4nc(NC(=O)CCNC(=O)c5cc(NC(=O)c6nccn6C)cn5C)cn4C)cn3C)cn2C)cc1` [Compound 84] is greater than 500 nM; for `Cc1sc2c(c1C)C(c1ccc(Cl)cc1)=N[C@@H](CC(=O)N[C@H]1CC[C@@H](N(C)CCOCCOCCOCCN3CCN(CCOCCOCCOCCNC(=O)CCNC(=O)c4nc(NC(=O)CCNC(=O)C5=CC(NC(=O)c6nc(NC(=O)CCNC(=O)c7cc(NC(=O)c8nccn8C)cn7C)cn6C)CN5C)cn4C)CC3)CC1)c1nnc(C)n1-2` (stereo partly drawn) [Compound 86] it is 100 to 500 nM. For `Cc1sc2c(c1C)C(c1ccc(Cl)cc1)=N[C@@H](CC(=O)N[C@H]1CC[C@@H](N(C)CCOCCOCCOCCOCCOCCOCCOCCOCCNC(=O)CCNC(=O)c3nc(NC(=O)CCNC(=O)c4cc(NC(=O)c5nc(NC(=O)CCNC(=O)c6cc(NC(=O)c7nccn7C)cn6C)cn5C)cn4C)cn3C)CC1)c1nnc(C)n1-2` [Compound 87], the EC50 is less than 100 nM. As to `Cc1sc2c(c1C)C(c1ccc(Cl)cc1)=N[C@@H](CC(=O)NC1CCN(CCOCCOCCOCCOCCOCCOCCOCCOCCNC(=O)CCNC(=O)c3nc(NC(=O)CCNC(=O)c4cc(NC(=O)c5nc(NC(=O)CCNC(=O)c6cc(NC(=O)c7nccn7C)cn6C)cn5C)cn4C)cn3C)CC1)c1nnc(C)n1-2` [Compound 88], the EC50 was less than 100 nM. Turning to `Cc1sc2c(c1C)C(c1ccc(Cl)cc1)=N[C@@H](CC(=O)NC1CCN(C3CN(CCOCCOCCOCCOCCOCCOCCOCCNC(=O)CCNC(=O)c4nc(NC(=O)CCNC(=O)c5cc(NC(=O)c6nc(NC(=O)CCNC(=O)c7cc(NC(=O)c8nccn8C)cn7C)cn6C)cn5C)cn4C)C3)CC1)c1nnc(C)n1-2` [Compound 89], the EC50 is less than 100 nM.

Take `Cc1sc2c(c1C)C(c1ccc(Cl)cc1)=N[C@@H](CC(=O)NC1CCN(C3CCN(CCOCCOCCOCCOCCOCCOCCOCCNC(=O)CCNC(=O)c4nc(NC(=O)CCNC(=O)C5=CC(NC(=O)c6nc(NC(=O)CCNC(=O)c7cc(NC(=O)c8nccn8C)cn7C)cn6C)CN5C)cn4C)CC3)CC1)c1nnc(C)n1-2` (stereo partly drawn) [Compound 90]: the EC50 was in the range of 100 to 500 nM. `Cc1sc2c(c1C)C(c1ccc(Cl)cc1)=N[C@@H](CC(=O)NC1CCN(CCN3CCN(CCOCCOCCOCCOCCOCCOCCNC(=O)CCNC(=O)c4nc(NC(=O)CCNC(=O)c5cc(NC(=O)c6nc(NC(=O)CCNC(=O)c7cc(NC(=O)c8nccn8C)cn7C)cn6C)cn5C)cn4C)CC3)CC1)c1nnc(C)n1-2` [Compound 91]: the EC50 was less than 100 nM. Turning to `Cc1sc2c(c1C)C(c1ccc(Cl)cc1)=N[C@@H](CC(=O)NC1CCN(CC#CC#CC3CCN(CCOCCOCCOCCOCCOCCNC(=O)CCNC(=O)c4nc(NC(=O)CCNC(=O)c5cc(NC(=O)c6nc(NC(=O)CCNC(=O)c7cc(NC(=O)c8nccn8C)cn7C)cn6C)cn5C)cn4C)CC3)CC1)c1nnc(C)n1-2` [Compound 92], the EC50 was less than 100 nM. Next, `Cc1sc2c(c1C)C(c1ccc(Cl)cc1)=N[C@@H](CC(=O)NC1CCN(CCOCCOCCOCCOCCOCCOCCOCCN3CCN(C(=O)CCNC(=O)c4nc(NC(=O)CCNC(=O)c5nc(NC(=O)c6nc(NC(=O)CCNC(=O)c7cc(NC(=O)c8nccn8C)cn7C)cn6C)cn5C)cn4C)CC3)CC1)c1nnc(C)n1-2` [Compound 98]: 100 to 500 nM; `Cc1sc2c(c1C)C(c1ccc(Cl)cc1)=N[C@@H](CC(=O)NC1CCN(CCOCCOCCOCCOCCOCCOCCOCCNC3CCN(C(=O)CCNC(=O)c4nc(NC(=O)CCNC(=O)c5nc(NC(=O)c6nc(NC(=O)CCNC(=O)c7cc(NC(=O)c8nccn8C)cn7C)cn6C)cn5C)cn4C)CC3)CC1)c1nnc(C)n1-2` [Compound 99]: 100 to 500 nM. In the case of `Cc1sc2c(c1C)C(c1ccc(Cl)cc1)=N[C@@H](CC(=O)N1CCN(CCOCCOCCOCCOCCOCCOCCOCCOCCNC(=O)CCNC(=O)c3nc(NC(=O)CCNC(=O)c4cc(NC(=O)c5nc(NC(=O)CCNC(=O)c6cc(NC(=O)c7nccn7C)cn6C)cn5C)cn4C)cn3C)CC1)c1nnc(C)n1-2` [Compound 101], the EC50 was greater than 500 nM.

`Cc1sc2c(c1C)C(c1ccc(Cl)cc1)=N[C@@H](CC(=O)Nc1ccc(C#CC#CCN(CCOCCOCCOCCOCCOCCN)CCOCCOCCOCCOCCOCCNC(=O)CCNC(=O)c3nc(NC(=O)CCNC(=O)c4cc(NC(=O)c5nc(NC(=O)CCNC(=O)c6cc(NC(=O)c7nccn7C)cn6C)cn5C)cn4C)cn3C)cc1)c1nnc(C)n1-2` [Compound 104]: the EC50 was 100 to 500 nM. Regarding `Cc1sc2c(c1C)C(c1ccc(Cl)cc1)=N[C@@H](CC(=O)NC1CCN(CCOCCOCCN3CCN(CCOCCOCCOCCOCCNC(=O)CCNC(=O)c4nc(NC(=O)CCNC(=O)c5cc(NC(=O)c6nc(NC(=O)CCNC(=O)c7cc(NC(=O)c8nccn8C)cn7C)cn6C)cn5C)cn4C)CC3)CC1)c1nnc(C)n1-2` [Compound 106], the EC50 is less than 100 nM. As to `Cc1sc2c(c1C)C(c1ccc(Cl)cc1)=N[C@@H](CC(=O)NC1CCN(CCCCCN3CCN(CCOCCOCCOCCOCCOCCNC(=O)CCNC(=O)c4nc(NC(=O)CCNC(=O)c5cc(NC(=O)c6nc(NC(=O)CCNC(=O)c7cc(NC(=O)c8nccn8C)cn7C)cn6C)cn5C)cn4C)CC3)CC1)c1nnc(C)n1-2` [Compound 107], the EC50 was in the range of 100 to 500 nM.

The values above are taken from patent publication US20240124491A1, “METHODS AND COMPOUNDS FOR TREATING FRIEDREICH'S ATAXIA” (Design Therapeutics, Inc., priority 2021, published 2024).
